Test results: patent publication US7482144B2, “Method for the production of xylitol” (priority 2000, dated 2009)

Tested on: β-xylosidase
Test: Possible inhibiting effect of xylitol on β-xylosidase
Assay type: biochemical
Protocol: 300 nkat concentrated β-xylosidase was incubated with 0, 1, 5, 10, 50, 100, 200 and 300 g/l of xylitol at 28° C. Samples were taken after 0, 0.5, 1, 2, 4, 6, 8, 24, 48 and 72 hours incubation and stored at −20° C. The activity of β-xylosidase was measured as described in Poutanen and Puls (1988) Appl. Microbiol. Biotechnol. 28:425-432. The activity of β-xylosidase remained stable in all the samples taken and thus it is not inhibited by xylitol.

Structure (SMILES): OC[C@@H](O)[C@H](O)[C@@H](O)CO [xylitol]
- Inhibition of β-xylosidase activity by xylitol (300 nkat β-xylosidase, 0-300 g/l xylitol, 28° C., 0-72 hours): not inhibited
- Inhibition of xylanolytic activity by xylitol (studies conducted so far): has not been shown to inhibit
